{"source": "ChEMBL document CHEMBL4017472", "about": "“New modified 2-aminobenzimidazole nucleosides: Synthesis and evaluation of their activity against herpes simplex virus type 1” (Bioorg Med Chem Lett, 2017)", "key": {"Human alphaherpesvirus 1 [1]": {"system": "Human alphaherpesvirus 1", "assay": "Antiviral activity against acyclovir and cidofovir-resistant HSV-1 L2 infected in African green monkey Vero E6 cells assessed as viral reproduction at 207 uM measured after 48 hrs post infection by gentian violet staining based plaque reduction assay (reference value: 6.52 +/- 0.11 log10PFU/ml)", "format": "functional, Vero C1008"}, "Human alphaherpesvirus 1 [2]": {"system": "Human alphaherpesvirus 1", "assay": "Antiviral activity against HSV-1 L2 infected in African green monkey Vero E6 cells assessed as inhibition of viral reproduction measured after 48 hrs post infection by gentian violet staining based plaque reduction assay", "format": "functional", "settings": "Vero C1008"}, "Human alphaherpesvirus 1 [3]": {"system": "Human alphaherpesvirus 1", "assay": "Antiviral activity against acyclovir-resistant HSV-1 L2 infected in African green monkey Vero E6 cells assessed as reduction in virus-induced cytopathic effect", "format": "functional", "settings": "Human alphaherpesvirus 1, L2, Vero C1008"}, "Human alphaherpesvirus 1 [4]": {"system": "Human alphaherpesvirus 1", "assay": "Antiviral activity against acyclovir and cidofovir-resistant HSV-1 L2 infected in African green monkey Vero E6 cells assessed as viral reproduction at 52 uM measured after 48 hrs post infection by gentian violet staining based plaque reduction assay (reference value: 6.52 +/- 0.11 log10PFU/ml)", "format": "functional, Vero C1008"}, "Human alphaherpesvirus 1 [5]": {"system": "Human alphaherpesvirus 1", "assay": "Antiviral activity against acyclovir and foscarnet-resistant HSV-1 L2 infected in African green monkey Vero E6 cells assessed as viral reproduction at 52 uM measured after 48 hrs post infection by gentian violet staining based plaque reduction assay (reference value: 5.92 +/- 0.11 log10PFU/ml)", "format": "functional, Vero C1008"}, "Human alphaherpesvirus 1 [6]": {"system": "Human alphaherpesvirus 1", "assay": "Antiviral activity against acyclovir and foscarnet-resistant HSV-1 L2 infected in African green monkey Vero E6 cells assessed as viral reproduction at 207 uM measured after 48 hrs post infection by gentian violet staining based plaque reduction assay (reference value: 5.92 +/- 0.11 log10PFU/ml)", "format": "functional, Vero C1008"}, "Human alphaherpesvirus 1 [7]": {"system": "Human alphaherpesvirus 1", "assay": "Antiviral activity against foscarnet-resistant HSV-1 F+ infected in African green monkey Vero E6 cells assessed as inhibition of viral reproduction measured after 48 hrs post infection by gentian violet staining based plaque reduction assay", "format": "functional", "settings": "Vero C1008"}, "Human alphaherpesvirus 1 [8]": {"system": "Human alphaherpesvirus 1", "assay": "Antiviral activity against acyclovir and cidofovir-resistant HSV-1 L2 infected in African green monkey Vero E6 cells assessed as viral reproduction at 104 uM measured after 48 hrs post infection by gentian violet staining based plaque reduction assay (reference value: 6.52 +/- 0.11 log10PFU/ml)", "format": "functional, Vero C1008"}, "Human alphaherpesvirus 1 [9]": {"system": "Human alphaherpesvirus 1", "assay": "Antiviral activity against HSV-1 L2 infected in African green monkey Vero E6 cells assessed as viral reproduction at 52 uM measured after 48 hrs post infection by gentian violet staining based plaque reduction assay (reference value: 6.91 +/- 0.05 log10PFU/ml)", "format": "functional, Vero C1008"}, "[10]": {"assay": "Selectivity index, ratio of MCC for African green monkey Vero E6 cells to IC50 for HSV-1 L2/Rp-ACV/2 infected in African green monkey Vero E6 cells", "design": "species or system Vero C1008"}, "Human alphaherpesvirus 1 [11]": {"system": "Human alphaherpesvirus 1", "assay": "Antiviral activity against acyclovir and foscarnet-resistant HSV-1 L2 infected in African green monkey Vero E6 cells assessed as inhibition of viral reproduction measured after 48 hrs post infection by gentian violet staining based plaque reduction assay", "format": "functional", "settings": "Vero C1008"}, "Human alphaherpesvirus 1 [12]": {"system": "Human alphaherpesvirus 1", "assay": "Antiviral activity against acyclovir-resistant HSV-1 L2 infected in African green monkey Vero E6 cells assessed as viral reproduction at 207 uM measured after 48 hrs post infection by gentian violet staining based plaque reduction assay (reference value: 5.95 +/- 0.03 log10PFU/ml)", "format": "functional, Vero C1008"}, "Human alphaherpesvirus 1 [13]": {"system": "Human alphaherpesvirus 1", "assay": "Antiviral activity against foscarnet-resistant HSV-1 F+ infected in African green monkey Vero E6 cells assessed as viral reproduction at 52 uM measured after 48 hrs post infection by gentian violet staining based plaque reduction assay (reference value: 6.6 +/- 0.1 log10PFU/ml)", "format": "functional, Vero C1008"}, "Human alphaherpesvirus 1 [14]": {"system": "Human alphaherpesvirus 1", "assay": "Antiviral activity against acyclovir-resistant HSV-1 L2 infected in African green monkey Vero E6 cells assessed as viral reproduction at 104 uM measured after 48 hrs post infection by gentian violet staining based plaque reduction assay (reference value: 5.95 +/- 0.03 log10PFU/ml)", "format": "functional, Vero C1008"}, "Human alphaherpesvirus 1 [15]": {"system": "Human alphaherpesvirus 1", "assay": "Antiviral activity against acyclovir and cidofovir-resistant HSV-1 L2 infected in African green monkey Vero E6 cells assessed as viral reproduction at 415 uM measured after 48 hrs post infection by gentian violet staining based plaque reduction assay (reference value: 6.52 +/- 0.11 log10PFU/ml)", "format": "functional, Vero C1008"}, "Human alphaherpesvirus 1 [16]": {"system": "Human alphaherpesvirus 1", "assay": "Antiviral activity against HSV-1 L2 infected in African green monkey Vero E6 cells assessed as viral reproduction at 415 uM measured after 48 hrs post infection by gentian violet staining based plaque reduction assay (reference value: 6.91 +/- 0.05 log10PFU/ml)", "format": "functional, Vero C1008"}, "Human alphaherpesvirus 1 [17]": {"system": "Human alphaherpesvirus 1", "assay": "Potency index, ratio of ribavirin IC50 to compound IC50 for HSV-1 L2 infected in African green monkey Vero E6 cells", "format": "functional, Vero C1008"}, "Human alphaherpesvirus 1 [18]": {"system": "Human alphaherpesvirus 1", "assay": "Antiviral activity against acyclovir-resistant HSV-1 L2 infected in African green monkey Vero E6 cells assessed as viral reproduction at 52 uM measured after 48 hrs post infection by gentian violet staining based plaque reduction assay (reference value: 5.95 +/- 0.03 log10PFU/ml)", "format": "functional, Vero C1008"}, "Human alphaherpesvirus 1 [19]": {"system": "Human alphaherpesvirus 1", "assay": "Antiviral activity against acyclovir and foscarnet-resistant HSV-1 L2 infected in African green monkey Vero E6 cells assessed as viral reproduction at 104 uM measured after 48 hrs post infection by gentian violet staining based plaque reduction assay (reference value: 5.92 +/- 0.11 log10PFU/ml)", "format": "functional, Vero C1008"}, "Human alphaherpesvirus 1 [20]": {"system": "Human alphaherpesvirus 1", "assay": "Antiviral activity against foscarnet-resistant HSV-1 F+ infected in African green monkey Vero E6 cells assessed as viral reproduction at 207 uM measured after 48 hrs post infection by gentian violet staining based plaque reduction assay (reference value: 6.6 +/- 0.1 log10PFU/ml)", "format": "functional, Vero C1008"}, "Human alphaherpesvirus 1 [21]": {"system": "Human alphaherpesvirus 1", "assay": "Antiviral activity against acyclovir and cidofovir-resistant HSV-1 L2 infected in African green monkey Vero E6 cells assessed as reduction in virus-induced cytopathic effect", "format": "functional", "settings": "Human alphaherpesvirus 1, L2, Vero C1008"}, "Human alphaherpesvirus 1 [22]": {"system": "Human alphaherpesvirus 1", "assay": "Antiviral activity against acyclovir-resistant HSV-1 L2 infected in African green monkey Vero E6 cells assessed as inhibition of viral reproduction measured after 48 hrs post infection by gentian violet staining based plaque reduction assay", "format": "functional", "settings": "Vero C1008"}, "Human alphaherpesvirus 1 [23]": {"system": "Human alphaherpesvirus 1", "assay": "Antiviral activity against acyclovir-resistant HSV-1 L2 infected in African green monkey Vero E6 cells assessed as viral reproduction at 415 uM measured after 48 hrs post infection by gentian violet staining based plaque reduction assay (reference value: 5.95 +/- 0.03 log10PFU/ml)", "format": "functional, Vero C1008"}, "Human alphaherpesvirus 1 [24]": {"system": "Human alphaherpesvirus 1", "assay": "Antiviral activity against acyclovir and foscarnet-resistant HSV-1 L2 infected in African green monkey Vero E6 cells assessed as viral reproduction at 415 uM measured after 48 hrs post infection by gentian violet staining based plaque reduction assay (reference value: 5.92 +/- 0.11 log10PFU/ml)", "format": "functional, Vero C1008"}, "[25]": {"assay": "Cytotoxicity against African green monkey Vero E6 cells measured after 3 days by trypan blue assay", "format": "cell-based, Vero C1008", "settings": "chlorocebus sabaeus"}, "Human alphaherpesvirus 1 [26]": {"system": "Human alphaherpesvirus 1", "assay": "Antiviral activity against HSV-1 L2/Rp-ACV/2 infected in African green monkey Vero E6 cells assessed as viral reproduction at 52 uM measured after 48 hrs post infection by gentian violet staining based plaque reduction assay (reference value: 6.05 +/- 0.1 log10PFU/ml)", "format": "functional, Vero C1008"}, "Human alphaherpesvirus 1 [27]": {"system": "Human alphaherpesvirus 1", "assay": "Antiviral activity against foscarnet-resistant HSV-1 F+ infected in African green monkey Vero E6 cells assessed as viral reproduction at 415 uM measured after 48 hrs post infection by gentian violet staining based plaque reduction assay (reference value: 6.6 +/- 0.1 log10PFU/ml)", "format": "functional, Vero C1008"}, "Human alphaherpesvirus 1 [28]": {"system": "Human alphaherpesvirus 1", "assay": "Antiviral activity against HSV-1 L2/Rp-ACV/2 infected in African green monkey Vero E6 cells assessed as viral reproduction at 415 uM measured after 48 hrs post infection by gentian violet staining based plaque reduction assay (reference value: 6.05 +/- 0.1 log10PFU/ml)", "format": "functional, Vero C1008"}}}
{"smiles": "Nc1nc2cc(F)c(F)cc2n1[C@@H]1O[C@H](CO)[C@@H](O)[C@H]1O", "values": [{"measurement": "Activity", "setting": "Human alphaherpesvirus 1 [1]", "value": 5.06, "unit": "log10PFU/ml"}, {"measurement": "inhibition", "setting": "Human alphaherpesvirus 1 [2]", "value": "Dose-dependent effect"}, {"measurement": "IC50", "setting": "Human alphaherpesvirus 1 [3]", "value": 104, "unit": "µM"}, {"measurement": "IC95", "setting": "Human alphaherpesvirus 1 [3]", "value": 830, "unit": "µM"}, {"measurement": "Activity", "setting": "Human alphaherpesvirus 1 [4]", "value": 5.71, "unit": "log10PFU/ml"}, {"measurement": "Activity", "setting": "Human alphaherpesvirus 1 [5]", "value": 5.4, "unit": "log10PFU/ml"}, {"measurement": "Activity", "setting": "Human alphaherpesvirus 1 [6]", "value": 4.47, "unit": "log10PFU/ml"}, {"measurement": "inhibition", "setting": "Human alphaherpesvirus 1 [7]", "value": "Dose-dependent effect"}, {"measurement": "Activity", "setting": "Human alphaherpesvirus 1 [8]", "value": 5.39, "unit": "log10PFU/ml"}, {"measurement": "Activity", "setting": "Human alphaherpesvirus 1 [9]", "value": 6.11, "unit": "log10PFU/ml"}, {"measurement": "Selectivity Index", "setting": "[10]", "value": ">32"}, {"measurement": "inhibition", "setting": "Human alphaherpesvirus 1 [11]", "value": "Dose-dependent effect"}, {"measurement": "Activity", "setting": "Human alphaherpesvirus 1 [12]", "value": 4.15, "unit": "log10PFU/ml"}, {"measurement": "Activity", "setting": "Human alphaherpesvirus 1 [13]", "value": 5.9, "unit": "log10PFU/ml"}, {"measurement": "Activity", "setting": "Human alphaherpesvirus 1 [14]", "value": 4.44, "unit": "log10PFU/ml"}, {"measurement": "Activity", "setting": "Human alphaherpesvirus 1 [15]", "value": 4.61, "unit": "log10PFU/ml"}, {"measurement": "Activity", "setting": "Human alphaherpesvirus 1 [16]", "value": 4.38, "unit": "log10PFU/ml"}, {"measurement": "Ratio IC50", "setting": "Human alphaherpesvirus 1 [17]", "value": 4}, {"measurement": "Activity", "setting": "Human alphaherpesvirus 1 [18]", "value": 5.04, "unit": "log10PFU/ml"}, {"measurement": "Activity", "setting": "Human alphaherpesvirus 1 [19]", "value": 4.8, "unit": "log10PFU/ml"}, {"measurement": "Activity", "setting": "Human alphaherpesvirus 1 [20]", "value": 4.87, "unit": "log10PFU/ml"}, {"measurement": "IC50", "setting": "Human alphaherpesvirus 1 [21]", "value": 208, "unit": "µM"}, {"measurement": "IC95", "setting": "Human alphaherpesvirus 1 [21]", "value": 830, "unit": "µM"}, {"measurement": "inhibition", "setting": "Human alphaherpesvirus 1 [22]", "value": "Dose-dependent effect"}, {"measurement": "Activity", "setting": "Human alphaherpesvirus 1 [23]", "value": 3.45, "unit": "log10PFU/ml"}, {"measurement": "Activity", "setting": "Human alphaherpesvirus 1 [24]", "value": 4.02, "unit": "log10PFU/ml"}, {"measurement": "MCC at 72 h", "setting": "[25]", "value": "> 3.32", "unit": "mM"}, {"measurement": "Activity", "setting": "Human alphaherpesvirus 1 [26]", "value": 5.32, "unit": "log10PFU/ml"}, {"measurement": "Activity", "setting": "Human alphaherpesvirus 1 [27]", "value": 3.9, "unit": "log10PFU/ml"}, {"measurement": "Activity", "setting": "Human alphaherpesvirus 1 [28]", "value": 4.06, "unit": "log10PFU/ml"}]}
